Data: US20250163044A1, “COMPOUNDS” (PSYLO PTY LTD, priority 2021, published 2025)

Key:
Assay type in all cases: cell-based
5-HT2B receptor = target: T1, 5-HT2B receptor (Homo sapiens, UniProt P41595); assay: FLIPR Ca2+ flux functional assay, agonist activity at 5-HT2B; conditions: CHO-K1 cells, Ca2+ flux; for EC50: read-out: 5-HT2B EC50
T1 construct: host or cells: CHO-K1
Method: (§1) Activity at 5-HT2A, 5-HT2B and 5-HT2C receptors was determined using a FLIPR Ca2+ flux assay at WuXi AppTec Co. Ltd. (Hong Kong) Discovery Biology Unit according to their standard protocols. Briefly, stably transfected cells expressing the receptor of interest (HEK293 for 5-HT2A and 5-HT2C; CHO-K1 for 5-HT2B) were grown and plated in a 384 well plate and incubated at 37° C. and 5% CO2 overnight. A 250 mM stock solution of probenecid in FLIPR calcium assay buffer (10 mL) was freshly prepared and combined with a fluorescent dye (Fluo-4 Direct) to give a final assay concentration of 2.5 mM. Reference compounds were 4-fold serially diluted and the screening compounds were 3-fold serially diluted in 100% DMSO for 10 points using Agilent Bravo, and 750 nL was added to a 384 well compound plate using Echo along with 30 μL assay buffer. The fluorescent dye was then added to the assay plate along with assay buffer to a final volume of 40 μL. The cell plate was incubated for 50 min at 37° C. and 5% CO2 and placed into the FLIPR Tetra along with the compound plate. 10 μL of references and compounds were then transferred from the compound plate into the cell plate and the fluorescent signal was read.

5-HT2C receptor = target: T2, 5-HT2C receptor (Homo sapiens, UniProt P28335); assay: FLIPR Ca2+ flux functional assay, agonist activity at 5-HT2C; conditions: HEK293 cells, Ca2+ flux; for EC50: read-out: 5-HT2C EC50
T2 construct: host or cells: HEK293
T2 sequence (P28335 33-458): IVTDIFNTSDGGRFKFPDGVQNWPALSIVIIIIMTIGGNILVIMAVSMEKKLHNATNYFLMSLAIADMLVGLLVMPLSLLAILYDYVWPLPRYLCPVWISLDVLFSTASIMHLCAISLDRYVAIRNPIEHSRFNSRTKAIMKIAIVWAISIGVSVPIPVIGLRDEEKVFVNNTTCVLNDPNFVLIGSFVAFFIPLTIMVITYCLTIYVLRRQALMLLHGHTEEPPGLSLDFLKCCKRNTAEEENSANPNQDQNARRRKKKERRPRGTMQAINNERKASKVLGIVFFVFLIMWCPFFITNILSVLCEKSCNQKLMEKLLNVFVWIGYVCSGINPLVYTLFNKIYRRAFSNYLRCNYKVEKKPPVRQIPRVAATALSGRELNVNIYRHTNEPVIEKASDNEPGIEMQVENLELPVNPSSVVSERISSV
Method: as §1

5-HT2A receptor = target: T3, 5-HT2A receptor (Homo sapiens, UniProt P28223); assay: FLIPR Ca2+ flux functional assay, agonist activity at 5-HT2A; conditions: HEK293 cells, Ca2+ flux; for EC50: read-out: 5-HT2A EC50
T3 construct: host or cells: HEK293
T3 sequence (P28223 whole entry): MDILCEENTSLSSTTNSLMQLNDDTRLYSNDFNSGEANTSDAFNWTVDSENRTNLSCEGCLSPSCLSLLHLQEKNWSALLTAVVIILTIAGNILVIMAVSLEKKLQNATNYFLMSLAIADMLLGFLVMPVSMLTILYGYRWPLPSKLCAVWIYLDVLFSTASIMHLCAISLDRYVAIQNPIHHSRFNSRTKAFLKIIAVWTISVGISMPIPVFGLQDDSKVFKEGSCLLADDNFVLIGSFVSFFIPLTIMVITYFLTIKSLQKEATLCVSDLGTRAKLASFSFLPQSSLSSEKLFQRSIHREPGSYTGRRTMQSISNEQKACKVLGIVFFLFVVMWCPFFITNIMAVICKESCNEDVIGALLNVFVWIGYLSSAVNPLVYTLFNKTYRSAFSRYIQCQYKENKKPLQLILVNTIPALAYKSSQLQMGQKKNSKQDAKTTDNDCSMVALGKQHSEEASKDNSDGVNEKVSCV
Method: as §1

T1 sequence (P41595 whole entry): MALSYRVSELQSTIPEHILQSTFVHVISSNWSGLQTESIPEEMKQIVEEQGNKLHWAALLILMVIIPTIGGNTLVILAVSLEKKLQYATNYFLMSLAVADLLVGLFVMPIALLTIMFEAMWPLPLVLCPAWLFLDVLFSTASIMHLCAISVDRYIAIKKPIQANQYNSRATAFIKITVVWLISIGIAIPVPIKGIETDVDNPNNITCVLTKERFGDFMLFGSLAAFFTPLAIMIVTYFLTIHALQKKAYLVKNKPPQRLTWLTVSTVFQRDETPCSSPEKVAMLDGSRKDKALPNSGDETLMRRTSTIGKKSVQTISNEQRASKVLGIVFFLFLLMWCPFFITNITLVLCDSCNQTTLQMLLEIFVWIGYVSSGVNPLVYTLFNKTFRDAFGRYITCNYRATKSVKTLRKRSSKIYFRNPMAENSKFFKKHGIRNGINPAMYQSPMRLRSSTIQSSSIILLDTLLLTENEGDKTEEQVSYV

Structure (SMILES): CCN(C)CCc1c[nH]c2ncc(C)cc12 [Example P-23, N-ethyl-N-methyl-2-(5-methyl-1H-pyrrolo[2,3-b]pyridin-3-yl)ethan-1-amine]
- Emax (5-HT2B receptor): 0.88%
- EC50 (5-HT2B receptor): > 10000 nM
- Emax (5-HT2C receptor): -0.04%
- EC50 (5-HT2C receptor): > 10000 nM
- Emax (5-HT2A receptor): 55%
- EC50 (5-HT2A receptor): 1240 nM

Structure (SMILES): CN(C)CCc1n[nH]c2cccc(O)c12 [Example P-56, 3-(2-(dimethylamino)ethyl)-1H-indazol-4-ol]
- Emax (5-HT2B receptor): -0.39%
- EC50 (5-HT2B receptor): > 10000 nM
- Emax (5-HT2C receptor): 63.6%
- EC50 (5-HT2C receptor): 1260 nM
- Emax (5-HT2A receptor): 50.5%
- EC50 (5-HT2A receptor): 794 nM

Structure (SMILES): CCN(CC)CCc1c[nH]c2nccc(OC)c12 [Example P-26, N,N-diethyl-2-(4-methoxy-1H-pyrrolo[2,3-b]pyridin-3-yl)ethan-1-amine]
- Emax (5-HT2B receptor): 3.08%
- EC50 (5-HT2B receptor): > 10000 nM
- Emax (5-HT2C receptor): 0.9%
- EC50 (5-HT2C receptor): > 10000 nM
- Emax (5-HT2A receptor): 58.3%
- EC50 (5-HT2A receptor): 1620 nM

Structure (SMILES): COc1ccc2[nH]cc(CCN(C(C)C)C(C)C)c2n1 [Example P-12, N-isopropyl-N-(2-(5-methoxy-1H-pyrrolo[3,2-b]pyridin-3-yl)ethyl)propan-2-amine]
- Emax (5-HT2B receptor): 102%
- EC50 (5-HT2B receptor): 22.2 nM
- Emax (5-HT2C receptor): 110%
- EC50 (5-HT2C receptor): 200 nM
- Emax (5-HT2A receptor): 85.7%
- EC50 (5-HT2A receptor): 6.96 nM

Structure (SMILES): COc1nccc2[nH]cc(CCN(C)C(C)C)c12 [Example P-38, N-(2-(4-methoxy-1H-pyrrolo[3,2-c]pyridin-3-yl)ethyl)-N-methylpropan-2-amine]
- Emax (5-HT2B receptor): 19.6%
- EC50 (5-HT2B receptor): 610 nM
- Emax (5-HT2C receptor): 70.2%
- EC50 (5-HT2C receptor): 1920 nM
- Emax (5-HT2A receptor): 83.1%
- EC50 (5-HT2A receptor): 77.7 nM

Structure (SMILES): CCCN(CCC)CCc1c[nH]c2ccnc(OC)c12 [Example P-35, N,N-dipropyl-2-(4-methoxy-1H-pyrrolo[3,2-c]pyridin-3-yl)ethan-1-amine]
- Emax (5-HT2B receptor): 74.7%
- EC50 (5-HT2B receptor): 78.5 nM
- Emax (5-HT2C receptor): 55.6%
- EC50 (5-HT2C receptor): 7180 nM
- Emax (5-HT2A receptor): 82.2%
- EC50 (5-HT2A receptor): 79 nM

Structure (SMILES): COc1cccc2[nH]nc(CCN(C)C)c12 [Example P-55, 2-(4-methoxy-1H-indazol-3-yl)-N,N-dimethylethan-1-amine]
- EC50 (5-HT2B receptor): > 10000 nM
- EC50 (5-HT2C receptor): 367 nM
- EC50 (5-HT2A receptor): 256 nM

Structure (SMILES): CN(C)CCc1n[nH]c2ccccc12 [Example P-7]
- EC50 (5-HT2B receptor): > 10000 nM
- EC50 (5-HT2C receptor): 2340 nM
- EC50 (5-HT2A receptor): > 10000 nM

Structure (SMILES): CN(C)CCc1c[nH]c2nccc(F)c12 [Example P-32, N,N-dimethyl-2-(4-fluoro-1H-pyrrolo[2,3-b]pyridin-3-yl)ethan-1-amine]
- Emax (5-HT2B receptor): 0.14%
- EC50 (5-HT2B receptor): > 10000 nM
- Emax (5-HT2C receptor): 0.61%
- EC50 (5-HT2C receptor): > 10000 nM
- Emax (5-HT2A receptor): 57.8%
- EC50 (5-HT2A receptor): 414 nM

Structure (SMILES): CCN(CC)CCc1c[nH]c2ncc(OC)cc12 [Example P-17, 2-(5-methoxy-1H-pyrrolo[2,3-b]pyridin-3-yl)-N,N-diethylethan-1-amine]
- Emax (5-HT2B receptor): 0.37%
- EC50 (5-HT2B receptor): > 10000 nM
- Emax (5-HT2C receptor): -0.53%
- EC50 (5-HT2C receptor): > 10000 nM
- Emax (5-HT2A receptor): 84.7%
- EC50 (5-HT2A receptor): 279 nM

Structure (SMILES): CCN(C)CCc1c[nH]c2ncc(OC)cc12 [Example P-20, N-ethyl-2-(5-methoxy-1H-pyrrolo[2,3-b]pyridin-3-yl)-N-methylethan-1-amine]
- Emax (5-HT2B receptor): 1.38%
- EC50 (5-HT2B receptor): > 10000 nM
- Emax (5-HT2C receptor): -0.08%
- EC50 (5-HT2C receptor): > 10000 nM
- Emax (5-HT2A receptor): 76.7%
- EC50 (5-HT2A receptor): 93.3 nM

Structure (SMILES): COc1ccc2[nH]cc(CCN(C)C(C)C)c2n1 [Example P-14, N-(2-(5-methoxy-1H-pyrrolo[3,2-b]pyridin-3-yl)ethyl)-N-methylpropan-2-amine]
- Emax (5-HT2B receptor): 1.06%
- EC50 (5-HT2B receptor): > 10000 nM
- Emax (5-HT2C receptor): 98.3%
- EC50 (5-HT2C receptor): 139 nM
- Emax (5-HT2A receptor): 78.9%
- EC50 (5-HT2A receptor): 21 nM

Structure (SMILES): CCN(C)CCc1c[nH]c2nccc(OC)c12 [Example P-28, N-ethyl-2-(4-methoxy-1H-pyrrolo[2,3-b]pyridin-3-yl)-N-methylethan-1-amine]
- Emax (5-HT2B receptor): 0.69%
- EC50 (5-HT2B receptor): > 10000 nM
- Emax (5-HT2C receptor): -0.06%
- EC50 (5-HT2C receptor): > 10000 nM
- Emax (5-HT2A receptor): 70.5%
- EC50 (5-HT2A receptor): 782 nM

Structure (SMILES): CCN(C)CCc1c[nH]c2ccnc(OC)c12 [Example P-37, N-ethyl-2-(4-methoxy-1H-pyrrolo[3,2-c]pyridin-3-yl)-N-methylethan-1-amine]
- Emax (5-HT2B receptor): 2.6%
- EC50 (5-HT2B receptor): > 10000 nM
- Emax (5-HT2C receptor): 105%
- EC50 (5-HT2C receptor): 533 nM
- Emax (5-HT2A receptor): 82.8%
- EC50 (5-HT2A receptor): 86.8 nM

Structure (SMILES): COc1ccnc2[nH]cc(CCN(C)C(C)C)c12 [Example P-29, N-(2-(4-methoxy-1H-pyrrolo[2,3-b]pyridin-3-yl)ethyl)-N-methylpropan-2-amine]
- Emax (5-HT2B receptor): 0.59%
- EC50 (5-HT2B receptor): > 10000 nM
- Emax (5-HT2C receptor): 0.48%
- EC50 (5-HT2C receptor): > 10000 nM
- Emax (5-HT2A receptor): 71.6%
- EC50 (5-HT2A receptor): 555 nM

Structure (SMILES): CCN(C)CCc1c[nH]c2nccc(F)c12 [Example P-33, N-ethyl-N-methyl-2-(4-fluoro-1H-pyrrolo[2,3-b]pyridin-3-yl)ethan-1-amine]
- Emax (5-HT2B receptor): 0.01%
- EC50 (5-HT2B receptor): > 10000 nM
- Emax (5-HT2C receptor): 0.33%
- EC50 (5-HT2C receptor): > 10000 nM
- Emax (5-HT2A receptor): 54.7%
- EC50 (5-HT2A receptor): 641 nM

Structure (SMILES): CCN(CC)CCc1c[nH]c2ccnc(OC)c12 [Example P-34, N,N-diethyl-2-(4-methoxy-1H-pyrrolo[3,2-c]pyridin-3-yl)ethan-1-amine]
- Emax (5-HT2B receptor): 14.7%
- EC50 (5-HT2B receptor): > 10000 nM
- Emax (5-HT2C receptor): 91.7%
- EC50 (5-HT2C receptor): 682 nM
- Emax (5-HT2A receptor): 82.6%
- EC50 (5-HT2A receptor): 150 nM

Structure (SMILES): COc1ccc2[nH]nc(CCN(C)C(C)C)c2c1 [Example P-52, N-(2-(5-methoxy-1H-indazol-3-yl)ethyl)-N-methylpropan-2-amine]
- EC50 (5-HT2B receptor): > 10000 nM
- EC50 (5-HT2C receptor): > 10000 nM
- EC50 (5-HT2A receptor): 1840 nM

Structure (SMILES): CCN(C)CCc1n[nH]c2ccc(OC)cc12 [Example P-51, N-ethyl-2-(5-methoxy-1H-indazol-3-yl)-N-methylethan-1-amine]
- EC50 (5-HT2B receptor): > 10000 nM
- EC50 (5-HT2C receptor): > 10000 nM
- EC50 (5-HT2A receptor): 526 nM

Structure (SMILES): CN(C)CCc1c[nH]c2ncc(F)cc12 [Example P-24, N,N-dimethyl-2-(5-fluoro-1H-pyrrolo[2,3-b]pyridin-3-yl)ethan-1-amine]
- Emax (5-HT2B receptor): 6.16%
- EC50 (5-HT2B receptor): > 10000 nM
- Emax (5-HT2C receptor): 24.7%
- EC50 (5-HT2C receptor): > 10000 nM
- Emax (5-HT2A receptor): 56.5%
- EC50 (5-HT2A receptor): 80.8 nM

Structure (SMILES): COc1nccc2[nH]cc(CCN(C(C)C)C(C)C)c12 [Example P-36, N,N-diisopropyl-2-(4-methoxy-1H-pyrrolo[3,2-c]pyridin-3-yl)ethan-1-amine]
- Emax (5-HT2B receptor): 48.9%
- EC50 (5-HT2B receptor): 96.4 nM
- Emax (5-HT2C receptor): 38.4%
- EC50 (5-HT2C receptor): > 10000 nM
- Emax (5-HT2A receptor): 114%
- EC50 (5-HT2A receptor): 77.1 nM

Structure (SMILES): CCN(CC)CCc1n[nH]c2cccc(O)c12 [Example P-43, 3-(2-(diethylamino)ethyl)-1H-indazol-4-ol]
- EC50 (5-HT2B receptor): > 10000 nM
- EC50 (5-HT2C receptor): > 10000 nM
- EC50 (5-HT2A receptor): 2180 nM

Structure (SMILES): CCN(CC)CCc1c[nH]c2ccc(OC)nc12 [Example P-10, 2-(5-Methoxy-1H-pyrrolo[3,2-b]pyridin-3-yl)-N,N-diethylethan-1-amine]
- Emax (5-HT2B receptor): 47.1%
- EC50 (5-HT2B receptor): 284 nM
- Emax (5-HT2C receptor): 99.1%
- EC50 (5-HT2C receptor): 68.6 nM
- Emax (5-HT2A receptor): 82.8%
- EC50 (5-HT2A receptor): 6.11 nM

Structure (SMILES): CCN(C)CCc1c[nH]c2ccc(OC)nc12 [Example P-13, N-ethyl-2-(5-methoxy-1H-pyrrolo[3,2-b]pyridin-3-yl)-N-methylethan-1-amine]
- Emax (5-HT2B receptor): 2.25%
- EC50 (5-HT2B receptor): > 10000 nM
- Emax (5-HT2C receptor): 95.8%
- EC50 (5-HT2C receptor): 31.9 nM
- Emax (5-HT2A receptor): 79.6%
- EC50 (5-HT2A receptor): 10.1 nM

Structure (SMILES): CCN(CC)CCc1n[nH]c2cccc(OC)c12 [Example P-42, 2-(4-methoxy-1H-indazol-3-yl)-N,N-diethylethan-1-amine]
- EC50 (5-HT2B receptor): > 10000 nM
- EC50 (5-HT2C receptor): 3490 nM
- EC50 (5-HT2A receptor): 2980 nM
